In US7642253B2, “Histone deacetylase inhibitors” (Takeda San Diego, Inc., priority 2005, dated 2010):

Target: HDAC2 (Homo sapiens, UniProt Q92769)
Assay: HDAC2 fluorescence inhibition assay (tBoc-Lys(Ac)-AMC)

HDAC2, sequence (Q92769 with tags, fused parts or gaps): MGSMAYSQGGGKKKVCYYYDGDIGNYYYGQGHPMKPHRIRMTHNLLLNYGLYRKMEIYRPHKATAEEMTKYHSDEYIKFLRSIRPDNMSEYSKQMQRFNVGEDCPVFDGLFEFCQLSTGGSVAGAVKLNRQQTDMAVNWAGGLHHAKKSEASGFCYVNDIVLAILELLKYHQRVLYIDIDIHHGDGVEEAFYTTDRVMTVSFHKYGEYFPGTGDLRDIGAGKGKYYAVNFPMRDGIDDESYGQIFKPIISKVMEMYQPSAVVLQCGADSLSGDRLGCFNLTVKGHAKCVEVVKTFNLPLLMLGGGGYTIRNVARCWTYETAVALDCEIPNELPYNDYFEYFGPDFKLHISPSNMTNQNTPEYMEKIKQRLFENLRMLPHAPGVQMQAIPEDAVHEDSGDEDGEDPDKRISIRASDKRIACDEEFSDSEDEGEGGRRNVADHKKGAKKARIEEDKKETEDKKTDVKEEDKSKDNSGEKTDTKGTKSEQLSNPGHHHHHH

| IC50 | SMILES |
| --- | --- |
| < 0.05 µM | Nc1ccccc1NC(=O)c1ccc(CN2C(=O)Nc3ccc(-c4cccs4)cc3S2(=O)=O)cc1 [Example 31, N-(2-Amino-phenyl)-4-(1,1,3-trioxo-7-thiophen-2-yl-3,4-dihydro-1H-1λ^6-benzo[1,2,4]thiadiazin-2-ylmethyl)-benzamide] |
| < 0.05 µM | Nc1ccccc1NC(=O)c1ccc(CN2C(=O)Nc3ccc(-c4ccoc4)cc3S2(=O)=O)cc1 [Example 32] |
| < 0.05 µM | Nc1ccccc1NC(=O)c1ccc(CN2C(=O)Nc3ccc(-c4ccncc4)cc3S2(=O)=O)cc1 [Example 27, N-(2-Amino-phenyl)-4-(1,1,3-trioxo-7-pyridin-4-yl-3,4-dihydro-1H-1λ^6-benzo[1,2,4]thiadiazin-2-ylmethyl)-benzamide] |
| < 0.05 µM | Nc1ccccc1NC(=O)c1ccc(CN2C(=O)Nc3cc(C(F)(F)F)ccc3S2(=O)=O)cc1 [Example 11, N-(2-Amino-phenyl)-4-(1,1,3-trioxo-6-trifluoromethyl-3,4-dihydro-1H-1λ^6-benzo[1,2,4]thiadiazin-2-ylmethyl)-benzamide] |
| 0.05 to 0.1 µM | NC1=Nc2ccccc2S(=O)(=O)N1Cc1ccc(C(=O)Nc2ccccc2N)cc1 [Example 7, 4-(3-Amino-1,1-dioxo-1H-1λ^6-benzo[1,2,4]thiadiazin-2-ylmethyl)-N-(2-amino-phenyl)-benzamide] |
| < 0.05 µM | Nc1ccccc1NC(=O)c1ccc(CN2C(=O)Nc3ccccc3S2(=O)=O)cc1 [Example 1, N-(2-Amino-phenyl)-4-(1,1,3-trioxo-3,4-dihydro-1H-1λ^6-benzo[1,2,4]thiadiazin-2-ylmethyl)-benzamide] |
| > 0.5 µM | CSC1=Nc2cc(C(F)(F)F)ccc2S(=O)(=O)N1Cc1ccc(C(=O)Nc2ccccc2N)cc1 [Example 16, N-(2-Amino-phenyl)-4-(3-methylsulfanyl-1,1-dioxo-6-trifluoromethyl-1H-1λ6-benzo[1,2,4]thiadiazin-2-ylmethyl)-benzamide] |
| 0.1 to 0.5 µM | CCSC1=Nc2ccccc2S(=O)(=O)N1Cc1ccc(C(=O)Nc2ccccc2N)cc1 [Example 9, N-(2-Amino-phenyl)-4-(3-ethylsulfanyl-1,1-dioxo-1H-1λ^6-benzo[1,2,4]thiadiazin-2-ylmethyl)-benzamide] |
| < 0.05 µM | Nc1ccccc1NC(=O)c1ccc(CN2C(=O)Nc3ccc(-c4ccco4)cc3S2(=O)=O)cc1 [Example 30, N-(2-Amino-phenyl)-4-(7-furan-2-yl-1,1,3-trioxo-3,4-dihydro-1H-1λ^6-benzo[1,2,4]thiadiazin-2-ylmethyl)-benzamide] |
| < 0.05 µM | Nc1ccccc1NC(=O)c1ccc(CN2C(=O)Nc3ccccc3S2(=O)=O)c(F)c1 [Example 25, N-(2-Amino-phenyl)-3-fluoro-4-(1,1,3-trioxo-3,4-dihydro-1H-1λ^6-benzo[1,2,4]thiadiazin-2-ylmethyl)-benzamide] |
| < 0.05 µM | Nc1ccccc1NC(=O)c1ccc(CN2C(=S)Nc3cc(F)ccc3S2(=O)=O)cc1 [Example 18, N-(2-Amino-phenyl)-4-(6-fluoro-1,1-dioxo-3-thioxo-3,4-dihydro-1H-1λ^6-benzo[1,2,4]thiadiazin-2-ylmethyl)-benzamide] |
| < 0.05 µM | CN1Cc2ccccc2N(Cc2ccc(C(=O)Nc3ccccc3N)cc2)C1=O [Example 15, N-(2-Amino-phenyl)-4-(3-methyl-2-oxo-3,4-dihydro-2H-quinazolin-1-ylmethyl)-benzamide] |
| < 0.05 µM | Nc1ccccc1NC(=O)c1ccc(CN2C(=S)Nc3ccccc3S2(=O)=O)cc1 [Example 4, N-(2-Amino-phenyl)-4-(1,1-dioxo-3-thioxo-3,4-dihydro-1H-1λ^6-benzo[1,2,4]thiadiazin-2-ylmethyl)-benzamide] |
| < 0.05 µM | COc1ccc2c(c1)NC(=S)N(Cc1ccc(C(=O)Nc3ccccc3N)cc1)S2(=O)=O [Example 12, N-(2-Amino-phenyl)-4-(6-methoxy-1,1-dioxo-3-thioxo-3,4-dihydro-1H-1λ^6-benzo[1,2,4]thiadiazin-2-ylmethyl)-benzamide] |
| < 0.05 µM | Nc1ccc(F)cc1NC(=O)c1ccc(CN2C(=O)Nc3ccccc3S2(=O)=O)cc1 [Example 22, N-(2-Amino-5-fluoro-phenyl)-4-(1,1,3-trioxo-3,4-dihydro-1H-1λ^6-benzo[1,2,4]thiadiazin-2-ylmethyl)-benzamide] |
| > 0.5 µM | Nc1ccccc1NC(=O)c1ccc(CN2C(=O)Nc3ccncc3S2(=O)=O)cc1 [Example 35, N-(2-Amino-phenyl)-4-(1,1,3-trioxo-3,4-dihydro-1H-1λ^6-pyrido[4,3-e][1,2,4]thiadiazin-2-ylmethyl)-benzamide] |
| < 0.05 µM | CN1Cc2ccccc2N(Cc2ccc(C(=O)Nc3ccccc3N)cc2)C1=S [Example 33, N-(2-Amino-phenyl)-4-(3-methyl-2-thioxo-3,4-dihydro-2H-quinazolin-1-ylmethyl)-benzamide] |
| 0.05 to 0.1 µM | Nc1ccccc1NC(=O)c1ccc(CN2C(=O)Nc3ccccc3S2(=O)=O)s1 [Example 34, 5-(1,1,3-Trioxo-3,4-dihydro-1H-1λ^6-benzo[1,2,4]thiadiazin-2-ylmethyl)-thiophene-2-carboxylic acid(2-amino-phenyl)-amide] |

| IC50 | SMILES |
| --- | --- |
| 0.1 to 0.5 µM | CNC1=Nc2ccccc2S(=O)(=O)N1Cc1ccc(C(=O)Nc2ccccc2N)cc1 [Example 6, N-(2-Amino-phenyl)-4-(3-methylamino-1,1-dioxo-1H-1λ^6-benzo[1,2,4]thiadiazin-2-ylmethyl)-benzamide] |
| < 0.05 µM | Nc1ccccc1NC(=O)c1ccc(CN2C(=O)Nc3ccc(-c4ccsc4)cc3S2(=O)=O)cc1 [Example 26, N-(2-Amino-phenyl)-4-(1,1,3-trioxo-7-thiophen-3-yl-3,4-dihydro-1H-1λ^6-benzo[1,2,4]thiadiazin-2-ylmethyl)-benzamide] |
| < 0.05 µM | COc1ccc2c(c1)NC(=O)N(Cc1ccc(C(=O)Nc3cc(F)ccc3N)cc1)S2(=O)=O [Example 20, N-(2-Amino-5-fluoro-phenyl)-4-(6-methoxy-1,1,3-trioxo-3,4-dihydro-1H-1λ6-benzo[1,2,4]thiadiazin-2-ylmethyl)-benzamide] |
| < 0.05 µM | Nc1ccccc1NC(=O)c1ccc(CN2C(=O)Nc3ccc(Br)cc3S2(=O)=O)cc1 [Example 23, N-(2-Amino-phenyl)-4-(7-bromo-1,1,3-trioxo-3,4-dihydro-1H-1λ^6-benzo[1,2,4]thiadiazin-2-ylmethyl)-benzamide] |
| < 0.05 µM | COc1ccc2c(c1)NC(=O)N(Cc1ccc(C(=O)Nc3ccccc3N)cc1)S2(=O)=O [Example 10, N-(2-Amino-phenyl)-4-(6-methoxy-1,1,3-trioxo-3,4-dihydro-1H-1λ^6-benzo[1,2,4]thiadiazin-2-ylmethyl)-benzamide] |
| < 0.05 µM | Nc1ccccc1NC(=O)c1ccc(CN2C(=O)Nc3ncc(Cl)cc3S2(=O)=O)cc1 [Example 21, N-(2-Amino-phenyl)-4-(7-chloro-1,1,3-trioxo-3,4-dihydro-1H-1λ^6-pyrido[2,3-e][1,2,4]thiadiazin-2-ylmethyl)-benzamide] |
| 0.1 to 0.5 µM | Nc1ccccc1NC(=O)c1ccc(Cn2c(=O)ncc3ccccc32)cc1 [Example 8, N-(2-aminophenyl)-4-((2-oxoquinazolin-1(2H),-yl)methyl)benzamide] |
| 0.1 to 0.5 µM | Nc1ccccc1NC(=O)c1ccc(CN2C(=O)NCc3ccccc32)cc1 [Example 3, N-(2-aminophenyl)-4-((2-oxo-3,4-dihydroquinazolin-1(2H),-yl)methyl)benzamide] |
| 0.1 to 0.5 µM | Nc1ccccc1NC(=O)c1ccc(CN2C(=O)Nc3cc(F)ccc3S2(=O)=O)cc1 [Example 17, N-(2-Amino-phenyl)-4-(6-fluoro-1,1,3-trioxo-3,4-dihydro-1H-1λ^6-benzo[1,2,4]thiadiazin-2-ylmethyl)-benzamide] |
| 0.05 to 0.1 µM | Nc1ccccc1NC(=O)c1ccc(CN2C(=O)Nc3ccccc3S2(=O)=O)nc1 [Example 24, N-(2-Amino-phenyl)-6-(1,1,3-trioxo-3,4-dihydro-1H-1λ^6-benzo[1,2,4]thiadiazin-2-ylmethyl)-nicotinamide] |
| 0.1 to 0.5 µM | NC1=NS(=O)(=O)c2ccccc2N1Cc1ccc(C(=O)Nc2ccccc2N)cc1 [Example 2, 4-(3-Amino-1,1-dioxo-1H-1λ^6-benzo[1,2,4]thiadiazin-4-ylmethyl)-N-(2-amino-phenyl)-benzamide] |
| < 0.05 µM | Nc1ccccc1NC(=O)c1ccc(CN2C(=O)Nc3ccc(-c4cccnc4)cc3S2(=O)=O)cc1 [Example 29, N-(2-Amino-phenyl)-4-(1,1,3-trioxo-7-pyridin-3-yl-3,4-dihydro-1H-1λ^6-benzo[1,2,4]thiadiazin-2-ylmethyl)-benzamide] |
| < 0.05 µM | COc1ccc2c(c1)NC(=S)N(Cc1ccc(C(=O)Nc3cc(F)ccc3N)cc1)S2(=O)=O [Example 19, N-(2-Amino-5-fluoro-phenyl)-4-(6-methoxy-1,1-dioxo-3-thioxo-3,4-dihydro-1H-1λ^6-benzo[1,2,4]thiadiazin-2-ylmethyl)-benzamide] |
| 0.05 to 0.1 µM | Nc1ccccc1NC(=O)c1ccc(CN2C(=S)Nc3cc(C(F)(F)F)ccc3S2(=O)=O)cc1 [Example 13, N-(2-Amino-phenyl)-4-(1,1-dioxo-3-thioxo-6-trifluoromethyl-3,4-dihydro-1H-1λ^6-benzo[1,2,4]thiadiazin-2-ylmethyl)-benzamide] |
| 0.1 to 0.5 µM | CSC1=Nc2ccccc2S(=O)(=O)N1Cc1ccc(C(=O)Nc2ccccc2N)cc1 [Example 5, N-(2-Amino-phenyl)-4-(3-methylsulfanyl-1,1-dioxo-1H-1λ^6-benzo[1,2,4]thiadiazin-2-ylmethyl)-benzamide] |
| < 0.05 µM | Nc1ccccc1NC(=O)c1ccc(CN2C(=O)Nc3ccc(-c4cncnc4)cc3S2(=O)=O)cc1 [Example 28, N-(2-Amino-phenyl)-4-(1,1,3-trioxo-7-pyrimidin-5-yl-3,4-dihydro-1H-1λ^6-benzo[1,2,4]thiadiazin-2-ylmethyl)-benzamide] |
| 0.05 to 0.1 µM | COc1ccc2c(c1)N=C(SC)N(Cc1ccc(C(=O)Nc3ccccc3N)cc1)S2(=O)=O [Example 14, N-(2-Amino-phenyl)-4-(6-methoxy-3-methylsulfanyl-1,1-dioxo-1H-1λ6-benzo[1,2,4]thiadiazin-2-ylmethyl)-benzamide] |
